Laboratory results: paper PMC6630221, “Semi-Synthesis and Evaluation of Sargahydroquinoic Acid Derivatives as Potential Antimalarial Agents” (Medicines, 2019)

Assays:
[1] = tested on: chloroquine-resistant Gambian FCR-3 strain of P. falciparum; assay: Antiplasmodial tritiated hypoxanthine incorporation assay; format: cell-based, Plasmodium falciparum; conditions: for antiplasmodial activity (in words): FCR-3 strain of P. falciparum; for IC50: Plasmodium falciparum, FCR3, chloroquine-resistant FCR-3 strain, 0.5% parasitaemia, 1% haematocrit, triplicate; for Selectivity Index: ratio of cytotoxicity IC50 (MDA-MB-231) to antimalarial IC50 (FCR-3)
Procedure: All compounds were tested in triplicate against the chloroquine-resistant Gambian FCR-3 strain of P. falciparum. The in vitro erythrocytic stage of the parasite was maintained using the method outlined by Trager and Jensen. The antimalarial activity of the compounds was determined using the tritiated hypoxanthine incorporation assay using a 0.5% parasitaemia and 1% haematocrit. All assays were carried out using untreated parasites and uninfected red blood cells as controls. The concentration that inhibited 50% parasite growth (IC50 value) was determined from the log sigmoid dose response curve using GraphPad Prism. Quinine was used as the reference antiplasmodial agent. The selectivity index for the compounds was determined from the ratio of cytotoxicity IC50 to antimalarial IC50.

[2] = tested on: MDA-MB-231 breast carcinoma cells; assay: Cytotoxicity WST-1 assay; format: cell-based; conditions: MDA-MB-231 cells; for IC50: Homo sapiens, WST-1, triplicate
Procedure: All compounds were tested in triplicate against MDA-MB-231 breast carcinoma cells, which were purchased from the ATCC (Catalogue number HTB-26, Manassas, VA, USA). The cytotoxicity of the compounds was determined using the WST-1 assay method (Roche). The cells were treated with a range of concentrations of the test compounds or vehicle control (DMSO). Cells treated with DMSO were considered to represent 100% viability and the viability of cells at each dose was represented relative to this value. The concentration resulting in a decrease of cell viability to 50% was calculated from the linear portion of the dose response curve.

[3] = tested on: Plasmodium falciparum (D10); design: method as in PMID 19227833; conditions: chloroquine sensitive strain D10 of P. falciparum; ref [5]; cited from earlier work
[4] = listed as sarganaphthoquinoic acid (10)

SMILES | antiplasmodial activity (in words) [1] | IC50 [1] | Selectivity Index [1] | IC50 [2] | IC50 [3] | antiplasmodial activity (in words) [1, 4] | cytotoxicity (in words) [2] | cytotoxicity (in words) [2, 4]
CC(C)=CCC/C(C=O)=C\CC/C(C)=C/CC/C(C)=C/CC1=CC(=O)C=C(C)C1=O [10E-sargaquinal (9), 10’E-sargaquinal] | decreased antiplasmodial activity | 104 µM | 0.7 | 69 µM | 2 µM | – | – | –
CC(C)=CCC/C(C=O)=C/CC/C(C)=C/CC/C(C)=C/CC1=CC(=O)C=C(C)C1=O [10Z-sargaquinal (4), 2’E,6’E,10’Z-sargaquinal] | decreased antiplasmodial activity | 72.6 µM | 2.9 | 211 µM | – | – | – | –
C=C[C@H]1C[N@@]2CC[C@H]1C[C@H]2[C@H](O)c1ccnc2ccc(OC)cc12 [Quinine, reference compound] | – | 0.17 µM | – | – | – | – | – | –
CC(C)=CCC/C(=C/CC/C(C)=C/CCC1(C)C=Cc2cc(O)cc(C)c2O1)CO (stereo not drawn) [Sargachromendiol (8), sargachromendiol] | – | 34.2 µM | 5.5 | 187 µM | – | – | – | –
CC(C)=CCC/C(=C/CC/C(C)=C/CCC1(C)C=Cc2cc(O)cc(C)c2O1)C(=O)O (stereo not drawn) [Sargachromenol (7), sargachromenol] | – | 115 µM | 0.5 | 56 µM | – | – | – | –
CC(C)=CCC/C(=C/CC/C(C)=C/CC/C(C)=C/Cc1cc(O)cc(C)c1O)C(=O)O [Sargahydroquinoic acid (1), sargahydroquinoic acid] | – | 38.6 µM | 1.8 | 70 µM | 15.2 µM | – | – | –
CC(=O)Oc1cc(C)c(OC(C)=O)c(C/C=C(\C)CC/C=C(\C)CC/C=C(/CCC=C(C)C)C(=O)O)c1 [Sargahydroquinoic acid di-acetate (2), Diacetyl Sargahydroquinoic Acid] | – | 84.3 µM | 3.4 | 286 µM | – | – | – | –
CC(C)=CCC/C(=C/CC/C(C)=C/CCc1ccc2c(c1)C(=O)C=C(C)C2=O)C(=O)O [Sarganaphthoquinone (10), sarganaphthoquinoic acid] | most promising antiplasmodial activity | 5.4 µM | – | 2410 µM | – | good antiplasmodial activity | low cytotoxicity | almost non-toxic
CC(C)=CCC/C(=C/CC/C(C)=C/CC/C(C)=C/CC1=CC(=O)C=C(C)C1=O)C(=O)O [Sargaquinoic acid (3), sargaquinoic acid] | most promising antiplasmodial activity | 10.8 µM | 60.9 | 658 µM | 12 µM | – | low cytotoxicity | –
COC(=O)/C(=C\CC/C(C)=C/CC/C(C)=C/CC1=CC(=O)C=C(C)C1=O)CCC=C(C)C [Sargaquinoic acid methyl ester (5), sargaquinoic acid methyl ester] | – | 8.2 µM | 8.6 | 70 µM | – | – | – | –
CC(C)=CCC/C(=C/CC/C(C)=C/CC/C(C)=C/CC1=CC(=O)C=C(C)C1=O)CO [Sargaquinol (6), sargaquinol] | decreased antiplasmodial activity | 93.1 µM | 1.1 | 99 µM | – | – | – | –
